The text below walks through data of ChEMBL document CHEMBL4834476, “Potent antiviral activity of Agrimonia pilosa, Galla rhois, and their components against SARS-CoV-2” (2021).

Experiment [1] relates to SARS-CoV-2. Briefly: Antiviral activity against SARS-CoV-2 NCCP43326 infected in African green monkey Vero cells assessed as inhibition of plaque formation at 25 ug/ml treated with compound for 1 hr post-infection followed by drug wash-out and measured at 72 hrs post-infection by crystal violet staining analysis relative to control. In kind it is functional. The conditions noted are these: Severe acute respiratory syndrome coronavirus 2, NCCP43326, Vero.

For experiment [2], the system named is SARS-CoV-2. Nature of the experiment: Antiviral activity against SARS-CoV-2 NCCP43326 infected in African green monkey Vero cells assessed as reduction in spike protein production at 1 to 25 ug/ml treated with compound for 1 hr post-infection followed by drug wash-out and measured at 72 hrs post-infection by ELISA. The format is functional, organism-based. The conditions noted are these: Severe acute respiratory syndrome coronavirus 2, dose 1-25 µg/ml. For orientation: ELISA stands for enzyme-linked immunosorbent assay.

Experiment [3] deals with SARS-CoV-2. Nature of the experiment: Antiviral activity against SARS-CoV-2 NCCP43326 infected in African green monkey Vero cells assessed as inhibition of plaque formation at 1 to 25 ug/ml treated with compound for 1 hr post-infection followed by drug wash-out and measured at 72 hrs post-infection by crystal violet staining analysis. In kind it is functional. The conditions noted are these: for Activity: Severe acute respiratory syndrome coronavirus 2, dose 1-25 µg/ml.

In experiment [4] the test system is SARS-CoV-2. Briefly: Antiviral activity against SARS-CoV-2 NCCP43326 infected in African green monkey Vero cells assessed as reduction in spike protein production at 1 to 25 ug/ml cells were infected with virus for 1 hr followed by wash-out period and later treated with compound and measured after 72 hrs by ELISA. In kind it is functional, organism-based. The following applies: Severe acute respiratory syndrome coronavirus 2, dose 1-25 µg/ml.

In experiment [5] the test system is SARS-CoV-2. Briefly: Antiviral activity against SARS-CoV-2 NCCP43326 infected in African green monkey Vero cells assessed as inhibition of plaque formation at 0.125 to 0.5 ug/ml treated with compound for 1 hr post-infection followed by drug wash-out and measured at 72 hrs post-infection by staining analysis. In kind it is functional, organism-based. The conditions noted are these: Severe acute respiratory syndrome coronavirus 2, dose 0.125-0.5 µg/ml.

Activity calls are given as the source filed them. No cut-off for these calls is given here.

One may read the inhibition as the percentage by which the read-out fell short of the control. Take `O=c1c(O)c(-c2ccc(O)c(O)c2)oc2cc(O)cc(O)c12` [QUERCETIN]: the inhibition at 25 µg/mL in experiment [1] amounted to 67.2%. Further, the result in experiment [2], in experiment [3] and in experiment [4] was Active.
In the case of `CCOC(=O)c1cc(O)c(O)c(O)c1` [ETHYLGALLATE], in experiment [1], the inhibition at 25 µg/mL is 21.1%. In addition, in experiment [3], the result was Active.
With `O=C(OC[C@H]1O[C@@H](OC(=O)c2cc(O)c(O)c(O)c2)[C@H](OC(=O)c2cc(O)c(O)c(O)c2)[C@@H](OC(=O)c2cc(O)c(O)c(O)c2)[C@@H]1OC(=O)c1cc(O)c(O)c(O)c1)c1cc(O)c(O)c(O)c1` [PENTAGALLOYL GLUCOSE], the inhibition at 25 µg/mL in experiment [1] is 100%. Besides, the outcome in experiment [2], in experiment [5] and in experiment [4] was Active. The “inhibition (INH)” value in experiment [3] (dose 1-25 µg/ml, at 1 to 25 µg/mL) worked out at 100%.
Regarding `C[C@H]1[C@H](C)CC[C@]2(C(=O)O)CC[C@]3(C)C(=CC[C@@H]4[C@@]5(C)CC[C@H](O)C(C)(C)[C@@H]5CC[C@]43C)[C@H]12` [URSOLIC ACID], the inhibition at 25 µg/mL in experiment [1] amounted to 78.3%. Besides, the result in experiment [2], in experiment [3] and in experiment [4] was Active.
